Each structure is given as a SMILES string.

The IC50 is the midpoint of a concentration-inhibition curve.

In this experiment the target is T1, Squalene synthase (Rattus norvegicus, UniProt Q02769).
T1 sequence (Q02769 whole entry): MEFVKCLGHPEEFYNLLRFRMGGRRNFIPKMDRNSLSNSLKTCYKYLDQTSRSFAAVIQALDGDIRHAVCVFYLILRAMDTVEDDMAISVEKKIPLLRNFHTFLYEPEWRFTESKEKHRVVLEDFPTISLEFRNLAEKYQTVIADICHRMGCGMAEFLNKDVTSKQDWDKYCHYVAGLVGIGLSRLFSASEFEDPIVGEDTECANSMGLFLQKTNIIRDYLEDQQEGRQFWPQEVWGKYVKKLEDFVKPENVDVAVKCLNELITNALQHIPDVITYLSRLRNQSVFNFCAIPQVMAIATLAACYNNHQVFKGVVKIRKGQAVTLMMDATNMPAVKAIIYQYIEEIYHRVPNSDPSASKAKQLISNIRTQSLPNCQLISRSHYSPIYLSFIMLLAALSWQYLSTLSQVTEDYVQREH
Put plainly: In vitro inhibition of rat squalene synthase.
`C=C(CC[C@]12O[C@H](CO)[C@@](O)(C(=O)O)[C@](C(=O)O)(O1)[C@H](O)[C@H]2O)[C@@H](OC(C)=O)[C@H](C)Cc1ccccc1` came in with an IC50 of 395 nM.

As to `C=C(CC[C@]12O[C@H](CO)[C@@](O)(C(=O)O)[C@](C(=O)O)(O1)[C@H](OC(=O)CCC(C)C)[C@H]2O)[C@@H](OC(C)=O)[C@H](C)Cc1ccccc1`, the IC50 turned out to be 119 nM.

As for `C=C(CC[C@]12O[C@H](CO)[C@@](O)(C(=O)O)[C@](C(=O)O)(O1)[C@H](OC(=O)CC[C@@H](C)C[C@@H](C)CC)[C@H]2O)[C@@H](O)[C@H](C)Cc1ccccc1`, the IC50 came to 22 nM.

Compound `C=C(CC[C@]12O[C@H](CO)[C@@](O)(C(=O)O)[C@](C(=O)O)(O1)[C@H](OC(=O)CC[C@@H](C)C[C@@H](C)CC)[C@H]2O)[C@@H](OC(C)=O)[C@H](C)Cc1ccccc1` returned an IC50 of 44 nM.

Compound `C=C(CC[C@]12OC[C@@](O)(C(=O)O)[C@](C(=O)O)(O1)[C@H](O)[C@H]2O)[C@@H](OC(C)=O)[C@H](C)Cc1ccccc1` gave an IC50 of 25000 nM.

Regarding `C=C(CC[C@]12OC[C@@](O)(C(=O)O)[C@](C(=O)O)(O1)[C@H](OC(=O)/C=C/[C@@H](C)C[C@@H](C)CC)[C@H]2O)[C@@H](OC(C)=O)[C@H](C)Cc1ccccc1`, the IC50 was 23 nM.

In turn, `CC[C@H](C)C[C@H](C)CCC(=O)O[C@@H]1[C@@H](O)[C@@]2(CCC(=O)[C@@H](O)[C@H](C)Cc3ccccc3)O[C@H](CO)[C@@](O)(C(=O)O)[C@]1(C(=O)O)O2` gave an IC50 of 740 nM.

`C=C(CC[C@]12O[C@H](CO)[C@@](O)(C(=O)O)[C@](C(=O)O)(O1)[C@H](OC(=O)/C=C/[C@@H](C)C[C@@H](C)CC)[C@H]2O)[C@@H](OC(C)=O)[C@H](C)Cc1ccccc1` came in with an IC50 of 15 nM.

`C=C(CC[C@]12O[C@H](CO)[C@@](O)(C(=O)O)[C@](C(=O)O)(O1)[C@H](OC(=O)/C=C/[C@@H](C)C[C@@H](C)CC)[C@H]2O)[C@@H](O)[C@H](C)Cc1ccccc1` registered an IC50 of 21 nM.

In turn, `C=C(CC[C@]12O[C@H](CO)[C@@](O)(C(=O)O)[C@](C(=O)O)(O1)[C@H](OC(=O)CCCCCC)[C@H]2O)[C@@H](OC(C)=O)[C@H](C)Cc1ccccc1` gave an IC50 of 245 nM.

In the case of `C=C(CC[C@]12O[C@H](CO)[C@@](O)(C(=O)O)[C@](C(=O)O)(O1)[C@H](OC(=O)CCCCCCCC)[C@H]2O)[C@@H](OC(C)=O)[C@H](C)Cc1ccccc1`, it took 140 nM to reach half-maximal inhibition (IC50).

Regarding `C=C(CC[C@]12O[C@H](CO)[C@@](O)(C(=O)OC)[C@](C(=O)O)(O1)[C@H](OC(=O)/C=C/[C@@H](C)C[C@@H](C)CC)[C@H]2O)[C@@H](OC(C)=O)[C@H](C)Cc1ccccc1`, the IC50 came to 79 nM.

For the compound `C=C(CC[C@]12O[C@H](CO)[C@@](O)(C(=O)O)[C@](C(=O)O)(O1)[C@H](OC(=O)CCC)[C@H]2O)[C@@H](OC(C)=O)[C@H](C)Cc1ccccc1`, the IC50 was found to be 800 nM.
